US11673897B2, “Compounds for the treatment of kinase-dependent disorders” (Exelixis, Inc., priority 2018, dated 2023)

Experiments:
Assay type in all cases: cell-based
AXL = AXL (Homo sapiens (Human), UniProt P30530); assay: AXL autophosphorylation ELISA in A-172 cells; conditions: cellular, Gas6-stimulated, phospho-AXL ELISA
Protocol: A-172 glioblastoma cells (ATCC #CRL-1620) were seeded at 2.5×10^5 cells/well onto 24-well plates (Greiner #662165), in […] (Thermo Fisher #11995-040) containing 10% FBS (Thermo Fisher #26140-079), […] (Thermo Fisher #11140-050), […] (Thermo Fisher #35050-061), and 1% Penicillin Streptomycin (Thermo Fisher #15140-122). A-172 cells were incubated at 37° C., […] for 24 hand then starved for 24 h in serum-free medium. Test compounds were serially diluted to produce an 8-point dose curve in fresh serum-free medium to a final concentration of 0.3% DMSO (vehicle) and added to the cells and incubated for 1 h. Cells were then stimulated with 1 μg/mL recombinant human Gas6 (R&D Systems #885-GSB-500) for 15 min, washed with cold PBS, and immediately lysed with 150 μL of cold 1× lysis buffer [20 mM Tris, 137 mM sodium chloride, 2 mM EDTA, 10% glycerol, 1% NP-40 alternative, 1 mM activated sodium orthovanadate, 1 mM PefaBloc SC (Sigma-Aldrich #11429868001), protease/phosphatase inhibitor tablet (Thermo Fisher #A32959)]. Lysates were collected and 100 μL/well added into the human phospho-AXL DuoSet IC ELISA (R&D Systems #DYC2228-2). Assay was performed according to manufacturer's instructions and sample phospho-AXL concentrations were extrapolated using human phospho-AXL control (R&D Systems #841645) as a standard. Positive control wells (100% activity) contained Gas6-stimulated, DMSO-treated cell lysates. Negative control wells (0% activity) contained Gas6-stimulated, reference inhibitor-treated cell lysates. IC50 values were calculated by nonlinear regression analysis using a 4-parameter logistic curve fit in ActivityBase XE (IDBS).

Mer = Mer (Homo sapiens (Human), UniProt Q12866); assay: Mer autophosphorylation ELISA in transient transfected 293A cells; conditions: cellular, MERTK-transfected 293A cells, phospho-Mer ELISA
Sequence of Mer (Q12866 21-999): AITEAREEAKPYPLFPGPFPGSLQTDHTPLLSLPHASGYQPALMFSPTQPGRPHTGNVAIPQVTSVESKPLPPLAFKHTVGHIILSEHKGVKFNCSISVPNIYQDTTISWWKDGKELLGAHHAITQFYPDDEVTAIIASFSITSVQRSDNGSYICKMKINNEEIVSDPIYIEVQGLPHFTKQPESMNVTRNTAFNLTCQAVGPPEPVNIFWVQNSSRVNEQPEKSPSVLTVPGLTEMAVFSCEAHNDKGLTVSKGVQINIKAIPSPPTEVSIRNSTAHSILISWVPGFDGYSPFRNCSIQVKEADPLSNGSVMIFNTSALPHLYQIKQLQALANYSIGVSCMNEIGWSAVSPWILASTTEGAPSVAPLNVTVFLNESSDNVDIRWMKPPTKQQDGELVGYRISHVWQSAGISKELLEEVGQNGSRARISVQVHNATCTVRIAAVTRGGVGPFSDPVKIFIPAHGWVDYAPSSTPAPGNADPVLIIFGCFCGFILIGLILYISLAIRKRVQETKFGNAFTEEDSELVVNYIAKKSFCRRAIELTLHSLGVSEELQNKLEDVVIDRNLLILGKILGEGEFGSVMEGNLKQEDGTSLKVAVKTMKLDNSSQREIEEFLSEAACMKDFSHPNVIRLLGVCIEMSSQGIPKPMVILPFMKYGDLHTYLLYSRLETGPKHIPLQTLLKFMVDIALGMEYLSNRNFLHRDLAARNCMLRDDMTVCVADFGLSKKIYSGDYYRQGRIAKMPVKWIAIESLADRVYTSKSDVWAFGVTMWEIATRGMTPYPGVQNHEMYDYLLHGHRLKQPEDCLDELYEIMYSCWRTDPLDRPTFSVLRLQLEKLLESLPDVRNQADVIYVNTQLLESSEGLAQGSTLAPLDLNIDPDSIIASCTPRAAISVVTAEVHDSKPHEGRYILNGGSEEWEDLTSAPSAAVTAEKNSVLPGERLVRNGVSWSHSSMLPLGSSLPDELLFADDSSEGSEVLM
Protocol: 293A cells (Thermo Fisher #R70507) were seeded at 1.5×10^6 cells/well onto 100 mm dish (Greiner #664169), in DMEM (Thermo Fisher #11995-040) containing 10% FBS (Thermo Fisher #26140-079), 1% MEM NEAA (Thermo Fisher #11140-050), 1% GlutaMax (Thermo Fisher #35050-061), and 1% Penicillin Streptomycin (Thermo Fisher #15140-122). 293A cells were incubated at 37° C., 5% CO2 for 24 h and then transfected with 6 μg MERTK DNA (Genecopoeia #EX-Z8208-M02) using TransIT LT1 transfection reagent (Mirus-Bio #MIR2305). After 24 h incubation, the transfected 293A cells were seeded at 1×10^5 cells/well onto 96-well plates (Corning #3904) in DMEM growth medium overnight. Test compounds were serially diluted to produce an 8-point dose curve in fresh serum-free medium to a final concentration of 0.3% DMSO (vehicle) and added to the cells and incubated for 1 h. Cells were then immediately lysed with 150 μL of cold 1× lysis buffer [20 mM Tris, 137 mM sodium chloride, 2 mM EDTA, 10% glycerol, 1% NP-40 alternative, 1 mM activated sodium orthovanadate, 1 mM PefaBloc SC (Sigma-Aldrich #11429868001), protease/phosphatase inhibitor tablet (Thermo Fisher #A32959)]. Lysates were clarified by centrifugation and 50 μL/well added into the human phospho-Mer DuoSet IC ELISA (R&D Systems #DYC2579-2). Assay was performed according to manufacturer's instructions and sample phospho-Mer concentrations were extrapolated using human phospho-Mer control (R&D Systems #841793) as a standard. Positive control wells (100% activity) contained DMSO-treated cell lysates. Negative control wells (0% activity) contained reference inhibitor-treated cell lysates. IC50 values were calculated by nonlinear regression analysis using a 4-parameter logistic curve fit in ActivityBase XE (IDBS).

Met = Met (Homo sapiens (Human), UniProt P08581); assay: Met autophosphorylation ELISA in PC-3 cells; conditions: cellular, HGF-stimulated, phospho-Met ELISA, read-out: c-Met IC50
Sequence of Met (P08581 25-1390): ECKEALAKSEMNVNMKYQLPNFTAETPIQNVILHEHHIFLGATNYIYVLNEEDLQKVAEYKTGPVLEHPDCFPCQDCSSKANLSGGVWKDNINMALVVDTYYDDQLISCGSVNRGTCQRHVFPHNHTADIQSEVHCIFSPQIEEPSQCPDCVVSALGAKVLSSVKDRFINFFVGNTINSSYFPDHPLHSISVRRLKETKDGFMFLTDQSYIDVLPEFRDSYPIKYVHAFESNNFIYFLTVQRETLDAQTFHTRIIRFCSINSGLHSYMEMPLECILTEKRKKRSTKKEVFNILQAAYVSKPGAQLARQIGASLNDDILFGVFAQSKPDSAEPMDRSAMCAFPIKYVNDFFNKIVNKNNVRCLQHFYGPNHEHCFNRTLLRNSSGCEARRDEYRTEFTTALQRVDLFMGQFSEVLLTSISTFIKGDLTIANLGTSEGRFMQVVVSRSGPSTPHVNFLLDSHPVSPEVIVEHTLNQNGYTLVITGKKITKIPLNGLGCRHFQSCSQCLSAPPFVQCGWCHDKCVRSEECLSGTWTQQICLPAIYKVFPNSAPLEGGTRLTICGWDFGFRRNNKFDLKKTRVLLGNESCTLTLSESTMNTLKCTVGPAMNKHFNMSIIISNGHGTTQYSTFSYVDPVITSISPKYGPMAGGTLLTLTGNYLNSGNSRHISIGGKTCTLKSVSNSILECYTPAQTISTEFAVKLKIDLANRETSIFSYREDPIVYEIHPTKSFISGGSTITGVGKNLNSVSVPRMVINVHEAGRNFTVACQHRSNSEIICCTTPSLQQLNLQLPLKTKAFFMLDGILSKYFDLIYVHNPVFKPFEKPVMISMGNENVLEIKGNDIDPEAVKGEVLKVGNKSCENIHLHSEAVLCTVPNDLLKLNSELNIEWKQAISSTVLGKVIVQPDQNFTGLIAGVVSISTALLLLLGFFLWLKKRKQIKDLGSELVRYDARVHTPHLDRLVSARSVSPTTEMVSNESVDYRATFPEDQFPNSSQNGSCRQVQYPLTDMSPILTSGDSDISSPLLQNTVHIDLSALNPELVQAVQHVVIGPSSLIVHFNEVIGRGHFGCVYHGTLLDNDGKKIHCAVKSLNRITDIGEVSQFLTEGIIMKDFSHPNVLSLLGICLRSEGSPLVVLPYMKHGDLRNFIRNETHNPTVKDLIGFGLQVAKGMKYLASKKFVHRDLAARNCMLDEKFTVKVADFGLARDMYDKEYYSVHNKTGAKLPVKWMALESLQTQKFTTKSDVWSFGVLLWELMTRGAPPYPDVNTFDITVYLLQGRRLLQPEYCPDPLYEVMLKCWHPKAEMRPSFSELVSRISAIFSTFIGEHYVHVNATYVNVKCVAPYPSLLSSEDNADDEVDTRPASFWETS
Protocol: PC-3 prostate cancer cells (ATCC #CRL-1435) were seeded at 4×10^4 cells/well onto 24-well plates (Greiner #662165), in DMEM (Thermo Fisher #11995-040) containing 10% FBS (Thermo Fisher #26140-079), 1% MEM NEAA (Thermo Fisher #11140-050), 1% GlutaMax (Thermo Fisher #35050-061), and 1% Penicillin Streptomycin (Thermo Fisher #15140-122). PC-3 cells were incubated at 37° C., 5% CO2 for 24 h and then starved for 3 h in serum-free medium. Test compounds were serially diluted to produce an 8-point dose curve in fresh serum-free medium to a final concentration of 0.3% DMSO (vehicle) and added to the cells and incubated for 1 h. Cells were then stimulated with 100 ng/mL recombinant human HGF (R&D Systems #294-HG-250) for 10 min, washed with cold PBS, and immediately lysed with 130 μL of cold 1× lysis buffer [20 mM Tris, 137 mM sodium chloride, 2 mM EDTA, 10% glycerol, 1% NP-40 alternative, 1 mM activated sodium orthovanadate, 1 mM PefaBloc SC (Sigma-Aldrich #11429868001), and protease/phosphatase inhibitor tablet (Thermo Fisher #A32959)]. Lysates were clarified by centrifugation and 100 μL/well added into the PathScan phospho-Met (panTyr) Sandwich ELISA (Cell Signaling Technology #7333). Assay was performed according to manufacturer's instructions. Positive control wells (100% activity) contained HGF-stimulated, DMSO-treated cell lysates. Negative control wells (0% activity) contained HGF-stimulated, reference inhibitor-treated cell lysates. IC50 values were calculated by nonlinear regression analysis using a 4-parameter logistic curve fit in ActivityBase XE (IDBS).

KDR = KDR (Homo sapiens (Human), UniProt P35968); assay: KDR autophosphorylation ELISA in HUVEC cells; conditions: cellular, VEGF165-stimulated, phospho-KDR ELISA
Sequence of KDR (P35968 20-1356): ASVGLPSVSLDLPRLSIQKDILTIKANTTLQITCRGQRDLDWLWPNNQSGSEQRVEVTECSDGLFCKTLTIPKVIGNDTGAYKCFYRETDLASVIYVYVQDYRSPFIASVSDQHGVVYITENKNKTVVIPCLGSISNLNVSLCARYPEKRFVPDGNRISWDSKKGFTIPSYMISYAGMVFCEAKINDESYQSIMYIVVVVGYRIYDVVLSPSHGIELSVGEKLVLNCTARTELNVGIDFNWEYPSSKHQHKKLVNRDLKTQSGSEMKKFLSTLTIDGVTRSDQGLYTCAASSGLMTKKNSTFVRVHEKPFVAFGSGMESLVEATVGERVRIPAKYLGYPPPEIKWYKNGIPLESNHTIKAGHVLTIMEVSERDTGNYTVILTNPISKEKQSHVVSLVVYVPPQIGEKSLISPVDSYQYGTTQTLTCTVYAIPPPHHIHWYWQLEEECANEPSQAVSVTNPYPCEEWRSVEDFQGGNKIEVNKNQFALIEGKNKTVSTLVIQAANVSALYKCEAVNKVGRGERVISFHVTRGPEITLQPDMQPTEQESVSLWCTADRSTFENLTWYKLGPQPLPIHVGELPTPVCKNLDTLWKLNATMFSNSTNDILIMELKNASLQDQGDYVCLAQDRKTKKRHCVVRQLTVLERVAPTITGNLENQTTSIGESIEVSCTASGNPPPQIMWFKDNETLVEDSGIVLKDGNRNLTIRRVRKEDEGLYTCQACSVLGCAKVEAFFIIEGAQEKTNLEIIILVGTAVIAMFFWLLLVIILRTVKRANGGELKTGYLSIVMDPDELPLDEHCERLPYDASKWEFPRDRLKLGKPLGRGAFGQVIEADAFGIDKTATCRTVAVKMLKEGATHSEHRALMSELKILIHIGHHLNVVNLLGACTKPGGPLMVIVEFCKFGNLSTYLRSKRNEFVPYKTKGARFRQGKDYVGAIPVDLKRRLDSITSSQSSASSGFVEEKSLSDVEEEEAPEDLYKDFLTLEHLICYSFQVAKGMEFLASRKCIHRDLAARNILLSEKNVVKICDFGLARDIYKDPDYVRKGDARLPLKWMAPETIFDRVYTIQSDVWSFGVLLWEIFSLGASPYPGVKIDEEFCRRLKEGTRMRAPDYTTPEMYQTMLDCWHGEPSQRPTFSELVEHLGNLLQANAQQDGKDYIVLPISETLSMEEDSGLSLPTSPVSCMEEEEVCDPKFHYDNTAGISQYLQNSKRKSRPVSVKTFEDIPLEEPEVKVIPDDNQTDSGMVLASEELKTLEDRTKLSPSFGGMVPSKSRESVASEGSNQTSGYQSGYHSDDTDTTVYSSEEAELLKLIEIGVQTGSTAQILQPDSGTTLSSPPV
Protocol: Human umbilical vein endothelial cells or HUVEC (Lonza #C2519A) were seeded at 2×10^4 cells/well onto 96-well plates (Corning #3904), in EGM-2 growth medium (Lonza #CC-3162) containing 1% Penicillin Streptomycin (Thermo Fisher #15140-122). HUVEC cells were incubated at 37° C., 5% CO2 for 24 h and then starved for 24 h in serum-free EBM-2 basal medium (Lonza #CC-3156) containing 1% Penicillin Streptomycin. Test compounds were serially diluted to produce an 8-point dose curve in fresh serum-free medium to a final concentration of 0.3% DMSO (vehicle) and added to the cells and incubated for 1 h. Cells were then stimulated with 100 ng/mL recombinant human VEGF165 (R&D Systems #293-VE-500) for 5 min, washed with cold PBS, and immediately lysed with 130 μL of cold 1× lysis buffer [20 mM Tris, 137 mM sodium chloride, 2 mM EDTA, 10% glycerol, 1% NP-40 alternative, 1 mM activated sodium orthovanadate, 1 mM PefaBloc SC (Sigma-Aldrich #11429868001), protease/phosphatase inhibitor tablet (Thermo Fisher #A32959)]. Lysates were collected and 100 μL/well added into the human phospho-KDR DuoSet IC ELISA (R&D Systems #DYC1766-2). Assay was performed according to manufacturer's instructions and sample phospho-KDR concentrations were extrapolated using human phospho-KDR control (R&D Systems #841421) as a standard. Positive control wells (100% activity) contained VEGF165-stimulated, DMSO-treated cell lysates. Negative control wells (0% activity) contained non-stimulated cell lysates. IC50 values were calculated by nonlinear regression analysis using a 4-parameter logistic curve fit in ActivityBase XE (IDBS).

Sequence of AXL (P30530 26-894): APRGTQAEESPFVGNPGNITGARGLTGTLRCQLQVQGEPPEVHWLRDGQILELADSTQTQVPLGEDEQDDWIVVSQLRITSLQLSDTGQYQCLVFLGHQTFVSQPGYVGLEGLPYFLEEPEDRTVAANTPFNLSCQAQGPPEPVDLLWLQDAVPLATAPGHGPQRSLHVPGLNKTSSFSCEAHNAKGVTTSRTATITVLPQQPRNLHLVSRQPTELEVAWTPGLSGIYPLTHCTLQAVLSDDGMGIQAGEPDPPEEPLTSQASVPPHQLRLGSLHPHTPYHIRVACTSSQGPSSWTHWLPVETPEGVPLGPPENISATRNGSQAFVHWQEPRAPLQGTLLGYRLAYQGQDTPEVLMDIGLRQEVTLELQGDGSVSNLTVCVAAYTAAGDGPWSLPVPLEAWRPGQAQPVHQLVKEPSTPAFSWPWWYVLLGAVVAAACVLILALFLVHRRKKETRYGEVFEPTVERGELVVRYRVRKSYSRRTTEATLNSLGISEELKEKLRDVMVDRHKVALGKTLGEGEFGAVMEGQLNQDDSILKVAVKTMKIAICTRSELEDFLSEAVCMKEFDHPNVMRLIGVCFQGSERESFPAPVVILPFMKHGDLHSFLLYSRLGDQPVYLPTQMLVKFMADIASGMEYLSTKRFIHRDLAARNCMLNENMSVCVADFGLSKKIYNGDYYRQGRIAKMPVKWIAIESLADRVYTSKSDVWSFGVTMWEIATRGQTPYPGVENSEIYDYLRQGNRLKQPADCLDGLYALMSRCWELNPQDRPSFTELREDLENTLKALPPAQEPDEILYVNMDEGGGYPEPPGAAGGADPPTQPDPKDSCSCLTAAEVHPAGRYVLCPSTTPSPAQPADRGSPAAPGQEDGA

Row | IC50 (AXL) | IC50 (Mer) | IC50 (Met) | IC50 (KDR) | Structure (SMILES)
1 | 10 to 100 nM | 10 to 100 nM | 100 to 300 nM | > 300 nM | COCCOc1cc2nccc(Oc3ncc(NC(=O)C4(C(=O)Nc5ccc(F)cc5)CC4)cc3F)c2nc1OC [Compound 116, 1-N′-[5-Fluoro-6-[[6-methoxy-7-(2-methoxyethoxy)-1,5-naphthyridin-4-yl]oxy]pyridin-3-yl]-1-N-(4-fluorophenyl)cyclopropane-1,1-dicarboxamide]
2 | 10 to 100 nM | 100 to 300 nM | 10 to 100 nM | > 300 nM | COc1nc2c(Oc3ncc(NC(=O)C4(C(=O)Nc5ccc(F)cc5)CC4)cc3F)ccnc2cc1OCC(O)CO (stereo not shown) [Compound 127, 1-N′-[6-[[7-(2,3-Dihydroxypropoxy)-6-methoxy-1,5-naphthyridin-4-yl]oxy]-5-fluoropyridin-3-yl]-1-N-(4-fluorophenyl)cyclopropane-1,1-dicarboxamide]
3 | 10 to 100 nM | > 300 nM | > 300 nM | > 300 nM | COc1cc2nccc(Oc3ccc(NC(=O)C4(C(=O)Nc5ccc(F)cc5)CC4)c(C)n3)c2nc1OC [Compound 87, 1-N′-[6-[(6,7-Dimethoxy-1,5-naphthyridin-4-yl)oxy]-2-methylpyridin-3-yl]-1-N-(4-fluorophenyl)cyclopropane-1,1-dicarboxamide]
4 | > 300 nM |  | > 300 nM | > 300 nM | COc1cc2nccc(Oc3nc(C)c(NC(=O)C4(C(=O)Nc5ccc(F)cc5)CC4)cc3Br)c2nc1OC [Compound 90, 1-N′-[5-Bromo-6-[(6,7-dimethoxy-1,5-naphthyridin-4-yl)oxy]-2-methylpyridin-3-yl]-1-N-(4-fluorophenyl)cyclopropane-1,1-dicarboxamide]
5 | > 300 nM |  | > 300 nM | > 300 nM | COc1cc2nccc(Oc3ncc(NC(=O)C4(C(=O)Nc5ccc(F)cc5)CC4)cc3C)c2nc1OC [Compound 85, 1-N′-[6-[(6,7-Dimethoxy-1,5-naphthyridin-4-yl)oxy]-5-methylpyridin-3-yl]-1-N-(4-fluorophenyl)cyclopropane-1,1-dicarboxamide]
6 | 100 to 300 nM |  | 10 to 100 nM | > 300 nM | COCCOc1cc2nccc(Oc3ncc(NC(=O)C4(C(=O)Nc5ccc(F)cc5)CC4)cc3Cl)c2nc1OC [Compound 115, 1-N′-[5-Chloro-6-[[6-methoxy-7-(2-methoxyethoxy)-1,5-naphthyridin-4-yl]oxy]pyridin-3-yl]-1-N-(4-fluorophenyl)cyclopropane-1,1-dicarboxamide]
7 | > 300 nM |  | > 300 nM | > 300 nM | COCCOc1nc2c(Oc3ncc(NC(=O)C4(C(=O)Nc5ccc(F)cc5)CC4)cc3F)ccnc2cc1OC [Compound 134, 1-N′-[5-Fluoro-6-[[7-methoxy-6-(2-methoxyethoxy)-1,5-naphthyridin-4-yl]oxy]pyridin-3-yl]-1-N-(4-fluorophenyl)cyclopropane-1,1-dicarboxamide]

The next lines start with the compound.

Row | Structure (SMILES) | IC50 (AXL) | IC50 (Mer) | IC50 (Met) | IC50 (KDR)
8 | CNC(=O)c1cc2c(Oc3ncc(NC(=O)C4(C(=O)Nc5ccc(F)cc5)CC4)cc3F)ccnc2cc1OC [Compound 22, 1-N′-[5-Fluoro-6-[7-methoxy-6-(methylcarbamoyl)quinolin-4-yl]oxypyridin-3-yl]-1-N-(4-fluorophenyl)cyclopropane-1,1-dicarboxamide] | ≤ 10 nM | 10 to 100 nM | 10 to 100 nM | > 300 nM
9 | COc1cc2ncnc(Oc3ccc(NC(=O)C4(C(=O)Nc5ccc(F)cc5)CC4)cn3)c2nc1OC [Compound 145, 1-N′-[6-(6,7-Dimethoxypyrido[3,2-d]pyrimidin-4-yl)oxypyridin-3-yl]-1-N-(4-fluorophenyl)cyclopropane-1,1-dicarboxamide] | 100 to 300 nM |  | > 300 nM | > 300 nM
10 | COCCOc1cc2nccc(Oc3ccc(NC(=O)C4(C(=O)Nc5ccc(F)cc5)CC4)cn3)c2nc1OC [Compound 114, 1-N-(4-Fluorophenyl)-1-N′-[6-[[6-methoxy-7-(2-methoxyethoxy)-1,5-naphthyridin-4-yl]oxy]pyridin-3-yl]cyclopropane-1,1-dicarboxamide] | 100 to 300 nM |  | 100 to 300 nM | > 300 nM
11 | CCc1noc(-c2cc3c(Oc4ncc(NC(=O)C5(C(=O)Nc6ccc(F)cc6)CC5)cc4F)ccnc3cc2OC)n1 [Compound 27, 1-N′-[6-[6-(3-Ethyl-1,2,4-oxadiazol-5-yl)-7-methoxyquinolin-4-yl]oxy-5-fluoropyridin-3-yl]-1-N-(4-fluorophenyl)cyclopropane-1,1-dicarboxamide] | > 300 nM |  | > 300 nM | > 300 nM
12 | COc1cc2nccc(Oc3ncc(NC(=O)C4(C(=O)Nc5ccc(F)cc5)CC4)cc3F)c2cc1C(=O)O [Compound 15, 4-[3-Fluoro-5-[[1-[(4-fluorophenyl)carbamoyl]cyclopropanecarbonyl]amino]pyridin-2-yl]oxy-7-methoxyquinoline-6-carboxylic acid] | > 300 nM |  | > 300 nM | > 300 nM
